How the values were obtained:
[1] = tested on: peritoneal macrophages from LdIr−/− mice; assay: OxLDL uptake by peritoneal macrophages (FITC-oxLDL, flow cytometry); assay type: cell-based; conditions: macrophages from mice treated with 3-HAA 200 mg/Kg i.p. for 8 weeks vs PBS; 20 μg/ml FITC-oxLDL, 2 h, 37° C.; P<0.01
Experimental: Peritoneal macrophages from LdIr−/− mice injected with 3-HAA (200 mg/Kg) or PBS (8 weeks treatment) were incubated with FITC-oxLDL at a concentration of 20 μg protein/ml for 2 h at 37° C. The uptake was quantified by flow cytometry. (A) Values given are MFI of FITC-oxLDL, means±SE of triplicate wells for each mouse (n=5 and 6, for 3-HAA or PBS respectively).
LDL was labeled using a modification of a previously described method^32. Briefly, LDL (1.5-2 mg/ml) was dialyzed overnight against 500 mM NaHCO3 pH 9.5. Next, 50 μg of FITC (Sigma-Aldrich, St. Louis, Mo., USA), dissolved in DMSO (1 mg/ml), was added for each mg of protein in LDL, and incubated at room temperature for 2 hours. After incubation conjugates were separated from the free fluorochrome by gel filtration using a PD10 column (GE Healthcare, Uppsala, Sweden) and PBS for elution. FITC conjugation was evaluated by absorption spectroscopy against a FITC standard curve at 495 nm. Protein concentration was determined by Bradford assay (Biorad, Calif., USA). […] The extent of oxidation was evaluated by the TBARS assay, as described^33.
Twenty four hours after the last injection of 3-HAA or PBS, peritoneal macrophages were isolated from LdIr−/− mice by peritoneal lavage with PBS. […] The cells were analyzed on a CyAn™ ADP flow cytometer (Dako, Glostrup, Denmark).

LdIr−/− mice [2] = assay: Plasma lipid analysis (total cholesterol, triglycerides; enzymatic colorimetric kits); assay type: in vivo; conditions: 3-HAA 200 mg/kg i.p., 8 weeks, high-fat diet, vs PBS; P<0.01
Experimental: It was hypothesized that induction of protective immunity, with effects on metabolism and inflammation, could be achieved by injecting 3-HAA (200 mg/kg) intraperitoneally, 3 times per week, for 8 weeks. Twelve weeks old LdIr−/− mice were treated with 3-HAA, or PBS as control. The mice were fed a high-fat diet starting 2 days after the first injection until sacrifice, 8 weeks later with CO2.
Plasma cholesterol and triglycerides were measured using enzymatic colorimetric kits according to the manufacturer's protocol. Dissected aortic arches were stained with Sudan IV en face and % lesion area of total vessel area was calculated. Additionally, the effect of 3-HAA on the uptake oxLDL was evaluated in cultures of peritoneal macrophages from 3-HAA or PBS treated mice.
(§1) LdIr−/− mice were bred and housed in the Animal Experimentation Unit at the Center for Molecular Medicine, Karolinska University Hospital. The mice (n=7-10 per group) received 3 intra-peritoneal injections of PBS (200 μl) or 3-HAA (200 mg/Kg in PBS) per week for 6 weeks and 1 injection per week in the following two weeks (total 24 injections) and were sacrificed with CO2. […]
Plasma cholesterol and triglycerides were measured using enzymatic colorimetric kits (Randox Lab. Ltd. Crumin, UK) according to the manufacturer's protocol.

LdIr−/− mice [3] = assay: Lipoprotein profiles of plasma (size fractionation, cholesterol per fraction); assay type: in vivo; conditions: 3-HAA 200 mg/kg i.p., 8 weeks
Experimental: (§2) LdIr−/− mice were bred and housed in the Animal Experimentation Unit at the Center for Molecular Medicine, Karolinska University Hospital. The mice (n=7-10 per group) received 3 intra-peritoneal injections of PBS (200 μl) or 3-HAA (200 mg/Kg in PBS) per week for 6 weeks and 1 injection per week in the following two weeks (total 24 injections) and were sacrificed with CO2. The mice were fed a high-fat diet (corn starch, cocoa butter, casein, glucose, sucrose, cellulose flour, minerals and vitamins; 17.2% protein, 21% fat (62.9% saturated, 33.9 unsaturated and 3.4% polyunsaturated), 0.15% cholesterol, 43% carbohydrates, 10% H2O and 3.9% cellulose fibers; R638 Lantmännen, Sweden) starting 2 days after the start of treatment.
Plasma cholesterol lipoprotein profiles were determined using a modification of the method of Okazaki et al^34. Briefly, plasma samples (50 μl) from mice treated with 3-HAA or PBS were fractionated using an HR10/30 Superose 6 column (GE Healthcare, Uppsala, Sweden) and a Discovery BIO GFC-500 as pre-column (5 cm×7.8 i.d.; Supelco®, Sigma-Aldrich, PA, USA) coupled to Prominence UFLC system (Shimadzu, Kyoto, Japan) and equilibrated with Tris-buffered saline, pH 7.4. Fractions of 200 μl were collected using Foxy Jr® fraction collector (Teledyne Isco Inc, NE, USA) and total cholesterol was determined in each fraction using enzymatic colorimetric kit (Randox Lab. Ltd. Crumin, UK).

LdIr−/− mice [4] = assay: Lesion analysis, en face Sudan IV staining of the aortic arch; assay type: in vivo; conditions: 3-HAA 200 mg/kg i.p., 8 weeks on high fat diet, vs PBS; P<0.001
Experimental: Twelve weeks old LdIr−/− mice were treated with 3-HAA or PBS as control. The mice were sacrificed after 8 weeks on a Western diet. Dissected arches were stained with Sudan IV en face and % lesion area of total vessel area was calculated using Image J image analysis software (NIH, Bethesda, Md.). The additive area of all the plaques in a given aortic arch was calculated as a percent of the total surface area of the arch. (n=7 and 10, for 3-HAA or PBS respectively). ***) P<0.001.
as §1
En face lipid accumulation was determined in the aortic arch from 3-HAA and PBS treated mice using Sudan IV staining. […] The additive area of all the plaques in a given aortic arch was calculated as a percent of the total surface area of the arch (not including branching vessels). Quantitation of plaques was performed using Image J software (NIH, Bethesda, USA).

[5] = Body weight of treated mice; assay type: in vivo; conditions: 3-HAA 200 mg/kg i.p., 8 weeks; data not shown
Experimental: as §2

Structure (SMILES): Nc1c(O)cccc1C(=O)O [3-HAA, 2-Amino-3-hydroxybenzoic acid]
- reduced uptake of FITC-oxLDL [1]: approx 79%
- reduction in plasma total cholesterol (LdIr−/− mice [2]): approx 50%
- reduction in plasma triglycerides (LdIr−/− mice [2]): approx 72%
- HDL levels (LdIr−/− mice [3]; high-fat diet, vs PBS): effectively raised HDL levels
- LDL/HDL ratio (LdIr−/− mice [3]; mean±SEM, PBS group 2.3±0.24, P<0.05): 1.4±0.16
- VLDL/HDL ratio (LdIr−/− mice [3]; mean±SEM, PBS group 4.0±0.55, P<0.01): 1.4±0.31
- reduction in atherosclerotic lesion area in en face preparations of the aortic arch (LdIr−/− mice [4]): approximately 90%
- effect on body weight [5]: no effect on body weight
